Legend:
Male Sprague-Dawley rats [1] = details: rat, in vivo
Male Sprague-Dawley rats [2] = details: rat, in vivo; remark: listed apart in the source

Row | Substance | ED50 in phase II (Male Sprague-Dawley rats [1]) [µg] | analgesic doses in the formalin test (Male Sprague-Dawley rats [1]) [µg] | effect on phase I flinches (Male Sprague-Dawley rats [1]) | effect on phase II flinches (Male Sprague-Dawley rats [1]) | potency in phase II (tonic pain) versus phase I (acute pain) (Male Sprague-Dawley rats [1]) | overt signs of toxicity (Male Sprague-Dawley rats [2]) | dose required to induce analgesic effects in both acute and tonic pain portions (Male Sprague-Dawley rats [1]) | effect of the single agent alone (Male Sprague-Dawley rats [1]) | rats showing signs of incoordination (Male Sprague-Dawley rats [2])
1 | Gly-Glu-Gla-Gla-Leu-Gln-Gla-Asn-Gln-Gla-Leu-Ile-Arg-Gla-Lys-Ser-Asn-NH2 [Conantokin G] | 0.15 | 0.05 to 1 | without significantly decreasing | nearly abolished | very potent | no overt signs of toxicity |  |  | 
2 | Gly-Glu-Gla-Gla-Val-Ala-Lys-Met-Ala-Ala-Glu-Leu-Ala-Arg-Glu-Asn-Ile-Ala-Lys-Gly-Cys-Lys-Val-Asn-Cys-Tyr-Pro [Conantokin R] |  |  |  |  |  |  | more than 3.3 μg | no effect | One of six rats

— patent US6407204B1 (priority 1997, dated 2002)
